Assay results: ChEMBL document CHEMBL2074252, “The specific bisindolylmaleimide PKC-inhibitor GF 109203X efficiently modulates MRP-associated multiple drug resistance” (Biochem Biophys Res Commun, 1995)

Target: Multidrug resistance-associated protein 1 (Homo sapiens, UniProt P33527)
Assay: TP_TRANSPORTER: inhibition of Rhodamine 123 efflux (R123: 0.8 ug/mL, GF109203X: 10 uM) in HL60/AR cells
Type: functional, cell-based

Chain of Multidrug resistance-associated protein 1 (P33527 whole entry): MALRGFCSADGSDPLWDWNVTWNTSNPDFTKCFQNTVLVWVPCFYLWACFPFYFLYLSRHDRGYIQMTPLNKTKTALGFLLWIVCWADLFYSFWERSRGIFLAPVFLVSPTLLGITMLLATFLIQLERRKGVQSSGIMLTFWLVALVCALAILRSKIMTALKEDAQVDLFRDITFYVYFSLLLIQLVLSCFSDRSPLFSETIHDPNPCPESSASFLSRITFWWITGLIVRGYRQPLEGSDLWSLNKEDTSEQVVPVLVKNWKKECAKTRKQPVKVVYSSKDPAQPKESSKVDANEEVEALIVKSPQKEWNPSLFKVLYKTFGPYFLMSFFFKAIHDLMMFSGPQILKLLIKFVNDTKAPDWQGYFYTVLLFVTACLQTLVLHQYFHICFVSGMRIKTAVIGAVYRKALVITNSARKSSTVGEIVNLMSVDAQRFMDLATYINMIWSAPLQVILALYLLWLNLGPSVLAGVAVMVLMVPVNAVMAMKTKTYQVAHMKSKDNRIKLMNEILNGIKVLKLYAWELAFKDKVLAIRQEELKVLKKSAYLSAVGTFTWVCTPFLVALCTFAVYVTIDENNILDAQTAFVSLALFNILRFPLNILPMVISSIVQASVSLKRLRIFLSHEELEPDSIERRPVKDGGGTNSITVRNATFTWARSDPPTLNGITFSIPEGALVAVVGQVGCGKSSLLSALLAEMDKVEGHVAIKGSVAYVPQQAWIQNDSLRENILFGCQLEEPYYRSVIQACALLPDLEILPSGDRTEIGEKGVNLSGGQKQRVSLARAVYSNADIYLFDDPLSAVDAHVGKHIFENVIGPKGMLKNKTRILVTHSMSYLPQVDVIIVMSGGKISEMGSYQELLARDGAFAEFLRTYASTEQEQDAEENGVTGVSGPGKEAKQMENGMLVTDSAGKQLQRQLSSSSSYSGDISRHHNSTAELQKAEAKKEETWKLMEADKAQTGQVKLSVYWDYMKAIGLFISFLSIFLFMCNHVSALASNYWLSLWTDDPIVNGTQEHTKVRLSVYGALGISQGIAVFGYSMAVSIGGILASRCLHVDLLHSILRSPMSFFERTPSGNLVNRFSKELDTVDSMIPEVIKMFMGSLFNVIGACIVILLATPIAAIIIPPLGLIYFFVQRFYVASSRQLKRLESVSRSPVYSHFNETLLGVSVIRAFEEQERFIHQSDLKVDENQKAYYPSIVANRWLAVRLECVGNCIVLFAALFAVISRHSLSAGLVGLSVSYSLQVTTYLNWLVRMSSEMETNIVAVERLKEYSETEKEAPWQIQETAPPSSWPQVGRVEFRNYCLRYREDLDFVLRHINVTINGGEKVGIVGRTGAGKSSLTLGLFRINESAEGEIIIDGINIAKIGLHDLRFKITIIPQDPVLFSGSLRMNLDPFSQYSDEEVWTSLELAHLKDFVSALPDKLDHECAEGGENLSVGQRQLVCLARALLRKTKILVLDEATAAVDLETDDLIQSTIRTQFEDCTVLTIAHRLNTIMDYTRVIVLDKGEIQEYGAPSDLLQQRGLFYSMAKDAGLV

Activity: inhibitor [+]
Compound: CN(C)CCCn1cc(C2=C(c3c[nH]c4ccccc34)C(=O)NC2=O)c2ccccc21 [GF-109203]
